One assay deals with T1, sGC α1/β1 heterodimer (Homo sapiens, UniProt Q02108+Q02153).
T1 construct: expressed in transfected cells
T1 sequence (Q02108 1-690): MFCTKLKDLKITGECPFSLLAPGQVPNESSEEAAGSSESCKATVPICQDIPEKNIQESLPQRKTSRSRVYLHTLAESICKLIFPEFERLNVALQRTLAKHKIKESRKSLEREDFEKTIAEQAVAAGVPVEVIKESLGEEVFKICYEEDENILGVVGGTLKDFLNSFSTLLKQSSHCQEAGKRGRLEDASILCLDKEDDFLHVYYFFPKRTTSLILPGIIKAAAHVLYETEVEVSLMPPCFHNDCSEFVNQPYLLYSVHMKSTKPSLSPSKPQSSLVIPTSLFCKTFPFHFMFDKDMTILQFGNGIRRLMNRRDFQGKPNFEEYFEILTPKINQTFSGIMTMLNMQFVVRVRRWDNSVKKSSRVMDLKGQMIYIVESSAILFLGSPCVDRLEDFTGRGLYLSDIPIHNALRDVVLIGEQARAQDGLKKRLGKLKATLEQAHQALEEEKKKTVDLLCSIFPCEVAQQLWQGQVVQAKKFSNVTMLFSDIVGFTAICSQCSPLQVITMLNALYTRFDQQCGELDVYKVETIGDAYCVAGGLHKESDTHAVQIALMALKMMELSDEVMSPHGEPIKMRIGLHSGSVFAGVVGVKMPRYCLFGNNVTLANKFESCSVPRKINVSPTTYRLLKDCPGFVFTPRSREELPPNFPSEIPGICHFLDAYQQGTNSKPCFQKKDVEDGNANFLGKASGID
T1 sequence (Q02153 1-619): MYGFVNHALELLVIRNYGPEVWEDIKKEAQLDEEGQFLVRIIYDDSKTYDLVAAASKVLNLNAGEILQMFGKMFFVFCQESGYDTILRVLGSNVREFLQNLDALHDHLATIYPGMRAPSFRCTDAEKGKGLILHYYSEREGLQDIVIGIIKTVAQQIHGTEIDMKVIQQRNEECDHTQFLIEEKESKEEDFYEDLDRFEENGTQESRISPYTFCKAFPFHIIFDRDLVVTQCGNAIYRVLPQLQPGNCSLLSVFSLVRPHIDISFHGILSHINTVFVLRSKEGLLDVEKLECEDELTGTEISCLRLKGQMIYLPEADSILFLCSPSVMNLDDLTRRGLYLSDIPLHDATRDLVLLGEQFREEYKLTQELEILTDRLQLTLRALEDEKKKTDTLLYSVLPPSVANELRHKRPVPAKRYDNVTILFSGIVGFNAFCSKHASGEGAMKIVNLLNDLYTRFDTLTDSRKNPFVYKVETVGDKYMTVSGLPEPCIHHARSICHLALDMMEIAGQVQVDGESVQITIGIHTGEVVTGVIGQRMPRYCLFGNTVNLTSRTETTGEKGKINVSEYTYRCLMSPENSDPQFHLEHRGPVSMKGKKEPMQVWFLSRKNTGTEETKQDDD
As to the kind of experiment: Cell-Based sGC Functional Assay (CASA Assay). The following applies: CHO-K1/sGC cells; for EC50: intracellular cGMP by HTRF, 1 hr at 37° C., IP from 4P fit, presence or absence of 1 μM DETA-NO not given; for Emax: cGMP as percentage of maximum cGMP production of Compound A (=100% activation), read-out: % ACT (percent activation). In a few lines:
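CHO-K1 cells stably expressing human sGC α1/β1 were incubated with compound (2.5% DMSO) for 1 hr at 37 °C with 0.5 mM IBMX, with or without 1 μM DETA-NO. Intracellular cGMP was measured by HTRF and expressed as % of the maximal cGMP produced by a reference sGC heme-dependent activator. IP and maximum fold induction came from a 4-parameter fit.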

The subject of assay [1] is Spontaneously hypertensive rats (SHR). Briefly: Acute Efficacy in Spontaneously Hypertensive Rats (SHR). The class given is in vivo, rat. As to conditions: single oral gavage. From the text:
Acute Efficacy in Spontaneously Hypertensive Rats (SHR)
Spontaneously hypertensive rats (SHR, male, Charles River) were implanted with DSI TA 11PA-C40 telemetry device (Data Sciences, Inc., St. Paul, Minn.) under isoflurane or ketamine/metomidine anesthesia. The telemetry unit catheter was inserted into the descending aorta via the femoral artery and the telemetry device was implanted subcutaneously in the left flank area. Animals were allowed to recover from surgery for 14 days before the start of any studies. Blood pressure, heart rate, and activity signals from conscious, freely moving rats were recorded continuously for 30 seconds every 10 min. On the day prior to administration of compound, a single oral dose of vehicle (10% transcutol/20% Cremophor/70% water) was administered to all animals to establish baseline control data. The blood pressure lowering efficacy of compound (PO) or vehicle was evaluated following a single oral gavage. Data were collected as hourly averages, and changes in blood pressure were calculated by subtracting control baseline data on an hourly basis. Animals were maintained on normal diet with a 12 h light-dark cycle.
Maximum peak decreases of systolic blood pressure (SBP) in SHR at a particular P.O. dose (mpk milligrams per kilogram) for the following Example compounds are provided. Category A=SBP in SHRs<25 mmHg; Category B=SBP in SHRs 25-40 mmHg; Category C=SBP in SHRs>40 mmHg.

Experimental findings from US9783552B2, “Soluble guanylate cyclase activators” (MERCK SHARP & DOHME CORP., priority 2013, dated 2017) are described below.

For `Cn1ccc2c(-c3nc(N)c4c(n3)NC(=O)C4(C)c3ccc(F)cc3)nc(CCC(F)(F)C(F)(F)F)nc21` (single isomer, unassigned) [Example 61, 4-Amino-5-(4-fluorophenyl)-5,7′-dimethyl-2′-(3,3,4,4,4-pentafluorobutyl)-5H,7′H-[2,4′-bipyrrolo[2,3-d]pyrimidin]-6(7H)-one], at sGC α1/β1 heterodimer, it took 61 nM to reach a half-maximal effect (EC50) and the Emax turned out to be 91%. Further, in assay [1] (Dose 1 mpk P.O.), the “Maximum peak decrease of systolic blood pressure (SBP) in SHR, Category” value (from here on “Maximum peak decrease”) was “A (Category A=SBP in SHRs<25 mmHg)”.
On to `Cn1ccc2c(-c3nc(N)c4c(n3)NC(=O)C4(C)c3ccccc3)nc(CCC(F)(F)C(F)(F)F)nc21` (single isomer, unassigned) [Example 62, 4-Amino-5,7′-dimethyl-2′-(3,3,4,4,4-pentafluorobutyl)-5-phenyl-5H,7′H-[2,4′-bipyrrolo[2,3-d]pyrimidin]-6(7H)-one], for which, on sGC α1/β1 heterodimer, the concentration giving a half-maximal response (EC50) was 19 nM and the Emax was determined as 92%. Also, in assay [1] (Dose 1 mpk P.O.), the “Maximum peak decrease” value is reported as “A (Category A=SBP in SHRs<25 mmHg)”.
`[2H]C([2H])([2H])n1nnc2c(-c3nc(N)c4c(n3)NC(=O)C4(C)c3ccc(F)cc3)nc(CCC(F)(F)C(F)(F)F)nc21` (single isomer, unassigned) [Example 67, 4-Amino-5-(4-fluorophenyl)-5-methyl-2-(5-(3,3,4,4,4-pentafluorobutyl-3-trideuteriomethyl)-3H-[1,2,3]triazolo[4,5-d]pyrimidin-7-yl)-5H-pyrrolo[2,3-d]pyrimidin-6(7H)-one]: at sGC α1/β1 heterodimer, the midpoint of the response, the EC50, lay at 1070 nM and the Emax worked out at 114%. In assay [1] (Dose 1 mpk P.O.), the “Maximum peak decrease” value is recorded as “A (Category A=SBP in SHRs<25 mmHg)”.
As for `[2H]C([2H])([2H])n1nnc2c(-c3nc(N)c4c(n3)NC(=O)C4(c3ccc(F)cc3)C3CC3)nc(CCC(F)(F)C(F)(F)F)nc21` (single isomer, unassigned) [Example 69, 4-Amino-5-cyclopropyl-5-(4-fluorophenyl)-2-(5-(3,3,4,4,4-pentafluorobutyl-3-trideuteriomethyl)-3H-[1,2,3]triazolo[4,5-d]pyrimidin-7-yl)-5H-pyrrolo[2,3-d]pyrimidin-6(7H)-one], on sGC α1/β1 heterodimer, a half-maximal effect (EC50) was put at 1140 nM and the Emax was 98%. Further, in assay [1] (Dose 3 mpk P.O.), the “Maximum peak decrease” value was “B (Category B=SBP in SHRs 25-40 mmHg)”.
Consider `[2H]C([2H])([2H])n1nnc2c(-c3nc(N)c4c(n3)NC(=O)C4(C)c3ccc(OC)cc3)nc(CCC(F)(F)C(F)(F)F)nc21` (single isomer, unassigned) [Example 71, 4-Amino-5-(4-methoxyphenyl)-5-methyl-2-(5-(3,3,4,4,4-pentafluorobutyl-3-trideuteriomethyl)-3H-[1,2,3]triazolo[4,5-d]pyrimidin-7-yl)-5H-pyrrolo[2,3-d]pyrimidin-6(7H)-one], for which, at sGC α1/β1 heterodimer, the response was half-maximal at 594 nM (EC50) and the Emax is 67%. The “Maximum peak decrease” value in assay [1] (Dose 1 mpk P.O.) is listed as “A (Category A=SBP in SHRs<25 mmHg)”.
As to `[2H]C([2H])([2H])n1nnc2c(-c3nc(N)c4c(n3)NC(=O)C4(C)c3ccc(Cl)cc3F)nc(CCC(F)(F)C(F)(F)F)nc21` (single isomer, unassigned) [Example 73, 4-Amino-5-(4-chloro-2-fluorophenyl)-5-methyl-2-(5-(3,3,4,4,4-pentafluorobutyl-3-trideuteriomethyl)-3H-[1,2,3]triazolo[4,5-d]pyrimidin-7-yl)-5H-pyrrolo[2,3-d]pyrimidin-6(7H)-one], on sGC α1/β1 heterodimer, a half-maximal effect (EC50) was put at 429 nM and the Emax was found to be 97%. In addition, in assay [1] (Dose 3 mpk P.O.), the “Maximum peak decrease” value is recorded as “A (Category A=SBP in SHRs<25 mmHg)”.
Consider `[2H]C([2H])([2H])n1ncc2c(-c3nc(N)c4c(n3)NC(=O)C4(C)C)nc(CCC(F)(F)C(F)(F)F)nc21` [Example 12, 4-Amino-5,5-dimethyl-2-(6-(3,3,4,4,4-pentafluorobutyl)-1-trideuteriomethyl-1H-pyrazolo[3,4-d]pyrimidin-4-yl)-5H-pyrrolo[2,3-d]pyrimidin-6(7H)-one], for which, on sGC α1/β1 heterodimer, the half-maximal effective concentration (EC50) stood at 285 nM and the Emax is 75%. Also, the “Maximum peak decrease” value in assay [1] (Dose 1 mpk P.O.) was “B (Category B=SBP in SHRs 25-40 mmHg)”.
